{"source": "patent US20240082313A1", "about": "“PHARMACEUTICAL COMPOSITIONS AND THEIR METHODS OF USE” (The Trustees of Indiana University, priority 2021, published 2024)", "key": {"[1]": {"test_system": "human breast cancer and prostate cancer tissues", "experiment": "Ex vivo tissue assay", "assay_type": "cell-based", "details": "breast (ER-positive and -negative) and prostate cancer tissue", "method": "Ex vivo tissue assay. The usage of human breast cancer and prostate cancer tissues was approved by the Indiana University Institutional Review Board. Two human breast cancer tissues (˜1 g each; estrogen receptor-positive and -negative) and prostate cancer tissue (˜1 g), received from Simon Cancer Center Tissue Procurement Core, were manually fragmented with a scalpel into small pieces (0.5˜0.8 mm in length). These pieces were grown in DMEM with 10% fetal bovine serum and antibiotics for a day. iTS cell-derived conditioned medium was then added for three additional days, and a change in the fragment size was determined. BML284 (10 μM) or β-catenin (40 ng/μ1) was applied to tissue fragments and CM was prepared as described above."}, "EO771 cells [2]": {"test_system": "EO771 cells", "experiment": "In vivo extravasation assay", "design": "species or system mouse", "details": "EO771 cells via tail vein", "source_text": "(§1) Animal models. The experimental procedures using animals were approved by the Indiana University Animal Care and Use Committee and were complied with the Guiding Principles in the Care and Use of Animals endorsed by the American Physiological Society. Mice were housed five per cage and provided with mouse chow and water ad libitum. In the mouse model of mammary tumors, C57BL/6 female mice (˜8 weeks, Envigo RMS, Inc., Indianapolis, IN, USA) were randomly assigned into five groups (14 mice per group). The placebo groups received cells transfected with a negative control vector, and the negative control group received cells transfected with β-catenin overexpression vector. The three treatment groups received β-catenin overexpressing iTS CM, BML-treated cells, and BML-treated iTS CM. Each group received a subcutaneous injection of EO771 cells (3.0×10^5 cells in 50 μl PBS) to the mammary fat pad. For tibial osteolysis, C57BL/6 female mice (8 mice per group) received an intra-tibial injection of EO771 cells (2.5×10^5 cells in 20 μl PBS) to the right tibia. The treatment group received iTS cell-derived CM as an injection into the intraperitoneal cavity. The animals were sacrificed on day 18, and the weight of each tumor was measured. To evaluate the effects of CMs for tumor invasion, an in vivo extravasation assay was conducted. […]"}, "EO771 cells [3]": {"test_system": "EO771 cells", "experiment": "Mouse model of mammary tumors", "assay_type": "in vivo", "details": "EO771 cells in mammary fat pad", "source_text": "as §1"}, "4T1.2 cells [4]": {"test_system": "4T1.2 cells", "experiment": "Mouse model of a mammary tumor", "assay_type": "in vivo", "details": "BALB/c mice, daily intraperitoneal injection of 10 mg/kg OAC2"}, "4T1.2 cells [5]": {"test_system": "4T1.2 cells", "experiment": "Western blot analysis", "assay_type": "cell-based, mouse", "details": "4T1.2 cells, OAC2 treatment", "method": "Western blot analysis. Cultured cells were lysed in a radio-immunoprecipitation assay (RIPA) buffer and proteins were fractionated by 10-15% SDS gels and electro-transferred to polyvinylidene difluoride (PVDF) transfer membranes (Millipore, Billerica, MA, USA). The membrane was incubated overnight with primary antibodies and then with secondary antibodies conjugated with horseradish peroxidase (Cell Signaling, Danvers, MA, USA). Antibodies against c-Myc, Oct4, Sox2, Klf4, Lrp5, Runx2, Snail, TGFβ, Eno1, Eef2, vinculin (Cell Signaling, Danvers, MA, USA), MMP9, NFATc1, cathepsin K (Santa Cruz, Dallas, TX, USA), TRAIL (Novus, Centennial, CO, USA), p53 (Invitrogen, Carlsbad, CA, USA), Hsp90ab1 (Abcam, Cambridge, UK), Kdm3a (Thermo-Fisher Scientific, Waltham, MA, USA) and β-actin as a control (Sigma, St. Louis, MO, USA) were employed. The level of proteins was determined using a SUPERSIGNAL™ west femto maximum sensitivity substrate (Thermo-Fisher Scientific, Waltham, MA, USA), and a luminescent image analyzer (LAS-3000, Fuji Film, Tokyo, Japan) was used to quantify signal intensities."}, "4T1.2 cells [6]": {"test_system": "4T1.2 cells", "experiment": "MTT-based viability", "assay_type": "cell-based, mouse", "details": "1 to 5 μM OAC2"}}, "note": "Entries after “also recorded” stand apart in the source; their conditions may differ.", "data": [{"smiles": "COc1cccc(-c2cc(NCc3ccc4c(c3)OCO4)nc(N)n2)c1", "note": "[BML284]", "values": [{"measurement": "size of cancer tissue fragments", "setting": "[1]", "value": "modestly increased"}, {"measurement": "number of tumor cells in the lung", "setting": "EO771 cells [2]", "value": "Increase"}, {"measurement": "tumor weight", "setting": "EO771 cells [3]", "value": "Increase"}]}, {"smiles": "O=C(Nc1ccc2[nH]ccc2c1)c1ccccc1", "note": "[OAC2]", "values": [{"measurement": "size of mammary tumors / progression of tumors, direct administration", "setting": "4T1.2 cells [4]", "value": "did not alter; also recorded: No detectable change"}, {"measurement": "Oct4 level", "setting": "4T1.2 cells [5]", "value": "Elevation"}, {"measurement": "MTT-based viability / proliferation of tumor cells, direct application", "setting": "4T1.2 cells [6]", "value": "did not alter; also recorded: No detectable change"}]}]}
